This passage reports Ki results from patent publication US20080306116A1, “ARYLOXAZOLE, ARYLOXADIAZOLE AND BENZIMIDAZOLE DERIVATIVES” (priority 2007, published 2008).

The structures appear in SMILES notation.

The assay deals with T1, human subtype 5 somatostatin receptor (Homo sapiens, UniProt P35346).
T1 construct: host or cells: CHO cell line, stably transfected; membranes used
T1 sequence (P35346 whole entry): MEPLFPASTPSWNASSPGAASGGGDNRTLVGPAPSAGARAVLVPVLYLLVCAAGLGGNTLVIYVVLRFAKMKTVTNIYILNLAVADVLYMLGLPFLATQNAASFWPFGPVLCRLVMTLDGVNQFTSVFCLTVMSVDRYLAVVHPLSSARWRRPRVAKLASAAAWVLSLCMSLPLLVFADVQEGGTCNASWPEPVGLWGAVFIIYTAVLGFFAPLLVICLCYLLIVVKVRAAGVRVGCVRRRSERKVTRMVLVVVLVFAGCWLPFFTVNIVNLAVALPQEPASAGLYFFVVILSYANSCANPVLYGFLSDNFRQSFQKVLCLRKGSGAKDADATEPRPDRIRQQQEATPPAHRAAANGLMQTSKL
In words: radioligand replacement (binding) assay, membranes of CHO cells expressing human SSTR5, 125I-labeled 11-Tyr somatostatin-14 tracer. As to conditions: CHO cell membranes, 0.05 nM 125I-labeled 11-Tyr somatostatin-14, 1 h at rt; Ki calculated from IC50 by Cheng-Prussoff equation; read-out: hSSTR5 Ki. The method, then: A CHO cell line stably transfected with a plasmid encoding the human subtype 5 somatostatin receptor (GenBank accession number D16827) was obtained from Euroscreen. Cells were cultured and used for binding and functional assays.
Membranes of these cells were prepared by sonication in the presence of protease inhibitors and subsequent fractionating centrifugation. The protein concentration in the membrane preparation was determined using a commercial kit (BCA kit, Pierce, USA). Membranes were stored at −80° C. until use. After thawing membranes were diluted in assay buffer (50 mM Tris-HCl at pH 7.4, 5 mM MgCl2 and 0.20% BSA) and subjected to dounce homogenization.
For binding studies, 0.1 mL membrane suspension, corresponding to approximately 6×10^−15 mol receptor, was incubated for 1 h at rt with 0.05 nM ^125I-labeled tracer (11-Tyr somatostatin-14, Perkin-Elmer) and either test compound in varying concentrations or, for the determination of non-specific binding, 0.001 mM non-labeled somatostatin-14. The incubation was stopped by filtration through GF/B glassfiber filters and washing with ice-cold wash buffer (50 mM Tris-HCl at pH 7.4). The bound radioactivity was measured after application of a scintillation cocktail (Microscint 40) and expressed as disintegrations per minute (dpm).
The receptor concentration was determined in a prior saturation experiment where a fixed, arbitrary amount of membranes was incubated with a concentration range of radio-labeled tracer. This allows estimating the total number of specific binding sites per amount of protein (i.e., Bmax), typically between 1 and 5 pmol/mg.
The concentration of the test compound required to result in half maximal inhibition of binding of the radio-labeled tracer (IC50) was estimated from a concentration-versus-dpm graph. The binding affinity (Ki) was calculated from the IC50 by applying the Cheng-Prussoff equation for single binding sites.
For orientation: Ki means a measure of affinity in units of concentration, obtained from inhibition or displacement. Turning to `CC(C)Oc1cc(CN2CCC(Nc3nc4ccccc4n3C)CC2)cc(OC(C)C)c1` [Example 13, [1-(3,5-Diisopropoxy-benzyl)-piperidin-4-yl]-(1-methyl-1H-benzoimidazol-2-yl)-amine], the Ki was 0.035 µM.
Under `CCOc1cc(CN2CCC(Nc3nc(-c4cccc(OC)c4)co3)CC2)cc(OCC)c1-c1ccc(F)cc1` [Example 15, [1-(2,6-Diethoxy-4′-fluoro-biphenyl-4-ylmethyl)-piperidin-4-yl]-[4-(3-methoxy-phenyl)-oxazol-2-yl]-amine] stands 0.048 µM; under `CCOc1cc(CN2CCC(Nc3nc(-c4ccc(Cl)cc4)co3)CC2)cc(OCC)c1Cl` [Example 27, [1-(4-Chloro-3,5-diethoxy-benzyl)-piperidin-4-yl]-[4(4-chloro-phenyl)oxazol-2-yl]-amine], 0.008 µM.
As for `CCOc1cc(CN2CCC(Nc3nc4ccccc4n3C)CC2)ccc1Cl` [Example 11, [1-(4-Chloro-3-ethoxy-benzyl)-piperidin-4-yl]-(1-methyl-1H-benzoimidazol-2-yl)-amine], the Ki was 0.042 µM.
With `CCOc1cc(CN2CCC(Nc3nc(-c4ccccc4)no3)CC2)cc(OCC)c1N` [Example 9, [1-(4-Amino-3,5-diethoxy-benzyl)-piperidin-4-yl]-(3-phenyl-[1,2,4]oxadiazol-5-yl)-amine] the figure was 0.041 µM; with `CCOc1cc(CN2CCC(Nc3nc(-c4ccccc4)no3)CC2)cc2c1OC(C)(C)C=C2` [Example 7, [1-(8-Ethoxy-2,2-dimethyl-2H-chromen-6-ylmethyl)-piperidin-4-yl]-(3-phenyl-[1,2,4]oxadiazol-5-yl)-amine], 0.449 µM; with `CCOc1cc(CN2CCC(Nc3nc(-c4ccccc4)no3)CC2)ccc1C` [Example 1, [1-(3-Ethoxy-4-methyl-benzyl)-piperidin-4-yl]-(3-phenyl-[1,2,4]oxadiazol-5-yl)-amine], 0.074 µM.
As to `CCOc1cc(CN2CCC(Nc3ncc(-c4ccccc4)o3)CC2)cc(OCC)c1C` [Example 46, [1-(3,5-Diethoxy-4-methyl-benzyl)-piperidin-4-yl]-(5-phenyl-oxazol-2-yl)-amine], the Ki is 0.012 µM.
With `CCOc1cc(CN2CCC(Nc3nc(-c4ccc(C(F)(F)F)cc4)co3)CC2)cc(OCC)c1-c1ccc(F)cc1` [Example 49] the figure was 0.073 µM.
With `CCOc1cc(CN2CCC(Nc3ncc(-c4ccccc4)o3)CC2)cc(OCC)c1-c1ccc(F)cc1` [Example 33, [1-(2,6-Diethoxy-4′-fluoro-biphenyl-4-ylmethyl)-piperidin-4-yl]-(5-phenyl-oxazol-2-yl)-amine] the figure was 0.028 µM.
With `CCOc1cc(CN2CCC(Nc3nc(-c4ccc(F)cc4)co3)CC2)cc(OCC)c1F` [Example 19, [1-(3,5-Diethoxy-fluoro-benzyl)-piperidin-4yl]-[4-(4-fluoro-phenyl)-oxazol-2-yl]-amine] the figure was 0.026 µM.
Consider `CCOc1cc(CN2CCC(Nc3nc(-c4ccccc4)co3)CC2)cc(OCC)c1-c1ccc(F)cc1` [Example 24], for which the Ki was 0.027 µM.
With `COc1ccc(CN2CCC(Nc3nc(-c4ccccc4)no3)CC2)cc1OCC(C)C` [Example 5, [1-(3-Isobutoxy-4-methoxy-benzyl)piperidin-4-yl]-(3-phenyl-[1,2,4]oxadiazol-5-yl)-amine] the figure was 0.116 µM; with `CCOc1cc(CN2CCC(Nc3nc(-c4ccccc4)no3)CC2)ccc1Cl` [Example 2, [1-(4-Chloro-3-ethoxy-benzyl)-piperidin-4-yl]-(3-phenyl-[1,2,4]oxadiazol-5-yl)-amine], 0.091 µM; with `CCOc1cc(CN2CCC(Nc3ncc(-c4ccccc4)o3)CC2)cc(OCC)c1Cl` [Example 37, [1-(4-Chloro-3,5-diethoxy-benzyl)-piperidin-4-yl]-(5-phenyl-oxazol-2-yl)amine], 0.012 µM.
Under `CCOc1cc(CN2CCC(Nc3ncc(-c4ccc(OC)cc4)o3)CC2)cc(OCC)c1-c1ccc(F)cc1` [Example 40, [1-(2,6-Diethoxy-4′-fluoro-bipehenyl-4-ylmethyl)-piperidin-4-yl]-[5-(4-methoxy-phenyl)-oxazol-2-yl]-amine] stands 0.046 µM.
